“Also recorded” adds a separate entry of the source. Like-named read-outs stand apart in the source and are kept apart here.
How the values were obtained:
[1] = test system: C. albicans; assay type: cell-based, Candida albicans; conditions: for effect of acids on hyphal formation in C. albicans: compared with lactic acid
Description: (§1) Candida (albicans, dubliensis, and tropicalis) hyphae were induced by incubating 10^6 CFU/ml cells with 10% FCS, for 3 h at 37° C. in the wells of a 24-well plate, in a total volume of 500 μl per repetition and 4 biological repetitions per condition. To investigate the effect of lactobacilli 10^8 CFU/ml L. rhamnosus strains were added to the wells and co-incubated. To investigate the effect of Msp1, 5 μg/ml or 10 μg/ml of purified Msp1 from L. rhamnosus GG or L. rhamnosus GR-1 was added to the wells and co-incubated. To investigate the effect of acids, 100 μl of a 1% lactic acid or 1% butyric acid was added to the wells and co-incubated. After (co-) incubation for 3 h, at least 100 yeast cells and/or hyphae were counted in each well (4 per condition) and the ratio of hyphae to yeast cells was calculated.

[2] = test system: C. albicans biofilms; assay: Inhibition of C. albicans biofilm formation (XTT, absorbance 492 nm); assay type: cell-based, Candida albicans; conditions: 24 h
Description: The inhibiting effects on C. albicans biofilms were assessed. Briefly, C. albicans was grown overnight in YPD medium and suspended to 10^6 CFU/ml and added to the wells of a 96 well plate (80 μl/well), together with the samples (supernatant, lactic acid, Msp1) or controls (MRS or H20). After incubation for 24 h at 37° C., the biofilms were washed twice and then 2,3-bis (2-methoxy-4- nitro-5-sulfophenyl)-2H-tetrazolium-5-carboxanilide (90 μl, 1 mg/ml) (Sigma Aldrich) and phenazine methosulphate (10 μl, 0.2 mg/ml) (Sigma Aldrich) were added to the wells. After a second incubation (37° C., 30 minutes, in the dark), the absorbance at 492 nm was measured using a Synergy™ HTX multi-mode reader (Biotek, Drogenbos, Belgium).

[3] = test system: C. dubliensis; assay: Inhibition of FCS-induced hyphal formation in C. dubliensis; assay type: cell-based, Candida dubliensis; conditions: different concentrations of Msp1
Description: as §1

[4] = Chitinase activity based on breakdown of chitin-azure; assay type: biochemical; conditions: compared with commercial chitinase from Streptomyces griseus; sodium acetate buffer control
Description: First, the chitinase activity of Msp1 was investigated based on breakdown of chitin-azure (Sigma), as described previously. Further confirmation was based on inhibition of chitinase activity by 2.5 mM Bisdionine C (Sigma), as described previously.

[5] = test system: C. tropicalis; assay: Inhibition of FCS-induced hyphal formation in C. tropicalis; assay type: cell-based, Candida tropicalis; conditions: different concentrations of Msp1
Description: as §1

CC(O)C(=O)O (centres unmarked) [Lactic acid, lactic acid]
reduction of hyphal morphogenesis ([1]; 0.5-2% lactic acid, D- and L-lactic acid 1:1): reduced hyphal morphogenesis | reduction of hyphal morphogenesis ([1]; 1% lactic acid (D- and L-lactic acid 1:1)): approximately 50% | anti-biofilm activity on C. albicans ([2]; lactic acid 0.4%): showed anti-biofilm activity

Cl [hydrochloric acid]
effect of acids on hyphal formation in C. albicans [1]: inhibited hyphae formation significantly

Cn1cnc2c1c(=O)n(CCCn1c(=O)c3c(ncn3C)n(C)c1=O)c(=O)n2C [Bisdionine C]
rescue of C. albicans hyphal morphogenesis from Msp1 inhibition ([1]; 2.5 mM Bisdionine C in the presence of Msp1): partially reversed; also recorded: can prevent hyphal inhibition partially

CCCC(=O)O [Butyric acid, butyric acid]
effect of acids on hyphal formation in C. albicans [1]: comparable effects

B1: Msp1: bifunctional peptidoglycan/chitin hydrolase, major secreted protein 1, purified from L. rhamnosus GG supernatant (protein)
chain: MVDSKKVLSVTAGFVGAAGLAALATGANTVSASTGTVSYKSGATTVWNSPSWHQVKRYVTFGDTVQLLGKTVDQNGATWYKVGDNQWIPELYLNVAGKTATVETPSSAASQTAVSQAPASQAPTSQAPATQTPAAPQTDTQTANTQLYVKNIGSAVTVWTTPAYTHATGQYLEGSQTLTAVAQQQANGETWYRLANGGYVPARFVSTTPVAVTPQPAAPQSNEASVASTNTNAANDSAAASSAAASQAAASSAAASTAAANAAVASANATASQAAASEAAASQAAASQAAASQAAASQAAASQAAASQAAASQAAASQAAASQAAASQAAANAAQQAPANQANVTTTQVNANQAQQQTATATPAVNTSNQTAAVSASRQAKIQAVIAIAEQQVGKPYVWGGKGPNSFDCSGLMYYAFLNGAGVNIGGWTVPQESSGTQVSLSALQPGDLLFWGSHGSTYHVALYIGGGTMIQAPQPGENVKYTALAYFMPDFAVRPSL
modifications: Msp1 protein
notes: bifunctional peptidoglycan/chitin hydrolase, major secreted protein 1, purified from L. rhamnosus GG supernatant
reduction of hyphal morphogenesis ([1]; concentrations as low as 5 μg/mL): more than 50% | effect on FCS-induced hyphal formation in C. dubliensis [3]: concentration-dependent effect | anti-biofilm activity on C. albicans ([2]; Msp1 10 μg/mL): showed anti-biofilm activity | breakdown of chitin (chitin-azure) [4]: able to break down chitin, to the same extent as a commercially available chitinase; also recorded: can break down chitin derivative, chitin-azure | effect on FCS-induced hyphal formation in C. tropicalis [5]: concentration-dependent effect

Reference: patent US12439925B2, “Anti-pathogenic activity of a bifunctional peptidoglycan/chitin hydrolase” (Universiteit Antwerpen, priority 2018, dated 2025)
